From PMC10578352, “Identification of a Protein Arginine Methyltransferase 7 (PRMT7)/Protein Arginine Methyltransferase 9 (PRMT9) Inhibitor” (Journal of Medicinal Chemistry, 2023)

Columns and labels:
Type in all cases: biochemical
DOT1L/KMT4 = target: T1, DOT1L/KMT4 (Homo sapiens, UniProt Q8TEK3); assay: HotSpot KMT activity assay, DOT1L
T1 construct: the human recombinant DOT1L (residues 1–416); N-terminal GST-tag; GST (N); purchased Reaction Biology Corporation
Description: Then, ^3H-SAM (final concentration 1 μM) was delivered into the reaction mixture to initiate the reaction. After incubation for 60 min at 30 °C, the reaction mixture was delivered to filter paper for detection (as assessed by scintillation). […] No inhibitor control (DMSO) was considered as showing 100% enzyme activity. Data were analyzed using Excel and GraphPad Prism 6.0 software (GraphPad Software Inc., San Diego, CA). Values obtained for each compound are mean ± SD determined for two separate experiments.

SET7/9/KMT7 = target: T2, SET7/9/KMT7 (Homo sapiens, UniProt Q8WTS6); assay: HotSpot KMT activity assay, SET7/9; settings: read-out: % SET7/9 residual activity
T2 construct: the human recombinant SET7/9 (residues 2–366, C-terminus); GST (N); His (C); purchased Reaction Biology Corporation
T2 sequence (Q8WTS6 2-366): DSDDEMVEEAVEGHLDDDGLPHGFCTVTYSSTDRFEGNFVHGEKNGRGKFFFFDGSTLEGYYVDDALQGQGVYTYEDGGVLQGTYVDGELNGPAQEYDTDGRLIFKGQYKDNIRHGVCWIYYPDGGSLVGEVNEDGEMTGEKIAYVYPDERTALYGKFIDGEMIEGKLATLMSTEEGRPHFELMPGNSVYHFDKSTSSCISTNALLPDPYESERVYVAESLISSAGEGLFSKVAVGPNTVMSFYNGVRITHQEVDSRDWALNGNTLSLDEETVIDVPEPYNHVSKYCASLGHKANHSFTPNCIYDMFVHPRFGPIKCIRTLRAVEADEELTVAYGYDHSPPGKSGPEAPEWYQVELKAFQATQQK
Text: (§1) ; MW = 35.4 kDa; Genbank Accession # NM_018489), or the human recombinant EZH2-containing five-member polycomb repressive complex 2 (including EZH2 residues 2–746, AEBP2 2–517, EED 2–441, RbAp48 2–425, SUZ12 2–739; all full-length; with N-terminal Flag-tag on EED and N-terminal His-tag on all others; MW = 333.8 kDa; Genbank Accession # NM_001203247, NM_001114176, NM_003797, NM_005610, NM_015355), or the human recombinant G9a (residues 913–1193, C-terminus; with an N-terminal His-tag; MW = 34.6 kDa; Genbank Accession # NM_006709.3), or the human recombinant MLL1 complex (including MLL1 residues 3745–3969, C-terminus, WDR5 22–334, C-terminus, RbBP5 1–538, C-terminus, ASH2L 2–534, C-terminus, DPY-30 1–99, C-terminus; N-terminal His-tag on all subunits; MW = 212.0 kDa; Genbank Accession # NM_005933, NM_017588, NM_005057, NM_001105214, NM_0325742), or the human recombinant SET7/9 (residues 2–366, C-terminus; with a N-terminal GST-tag and a C-terminal His-tag; MW = 68.5 kDa; Genbank Accession # NM_030648), or the human recombinant SMYD3 (residues 2–428, C-terminus; C-terminal His-tag; MW = 50.1 kDa; Genbank Accession # NM_001167740), or the human recombinant SUV39H2 (residues 46–410, C-terminus; N-terminal fusion protein with a C-terminal His-tag; MW = 98.8 kDa; GenBank Accession No. NM_001193424), or the human recombinant DOT1L (residues 1–416; N-terminal GST-tag; MW = 80.0 kDa; Genbank Accession # NM_032482) was added to a solution of the proper substrate (oligo nucleosomes for ASH1L, MLL1 complex, and DOT1L, final concentration 0.05 mg/mL; core histone for EZH2 complex and SET7/9, final concentration 0.05 mg/mL; histone H3 for SUV39H2, final concentration 5 μM; histone H3 1–21 for G9a, final concentration 2.5 μM) in freshly prepared reaction buffer (50 mM Tris-HCl (pH 8.5), 5 mM MgCl2, 50 mM NaCl, 1 mM DTT, 1 mM PMSF, 1% DMSO) and gently mixed. […] After incubation for 60 min at 30 °C, the reaction mixture was delivered to filter paper for detection (as assessed by scintillation). […] Values obtained for each compound are mean ± SD determined for two separate experiments.

SMYD3/KMT3E = target: T3, SMYD3/KMT3E (Homo sapiens, UniProt Q9H7B4); assay: HotSpot KMT activity assay, SMYD3; settings: read-out: % SMYD3 residual activity
T3 construct: the human recombinant SMYD3 (residues 2–428, C-terminus); C-terminal His-tag; His (C); purchased Reaction Biology Corporation
T3 sequence (Q9H7B4 2-428): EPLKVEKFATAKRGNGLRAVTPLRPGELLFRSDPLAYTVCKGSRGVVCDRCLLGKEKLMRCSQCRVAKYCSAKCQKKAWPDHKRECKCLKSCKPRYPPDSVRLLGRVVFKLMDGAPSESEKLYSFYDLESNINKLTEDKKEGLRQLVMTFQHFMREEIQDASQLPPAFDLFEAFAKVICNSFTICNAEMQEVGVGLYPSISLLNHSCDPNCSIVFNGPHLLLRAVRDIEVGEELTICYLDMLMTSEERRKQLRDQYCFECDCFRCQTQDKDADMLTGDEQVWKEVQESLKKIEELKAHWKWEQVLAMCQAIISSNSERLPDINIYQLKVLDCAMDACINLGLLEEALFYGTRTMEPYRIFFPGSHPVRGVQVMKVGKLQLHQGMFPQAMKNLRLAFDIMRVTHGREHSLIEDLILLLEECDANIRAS
Text: as §1

T1 sequence (Q8TEK3 1-416): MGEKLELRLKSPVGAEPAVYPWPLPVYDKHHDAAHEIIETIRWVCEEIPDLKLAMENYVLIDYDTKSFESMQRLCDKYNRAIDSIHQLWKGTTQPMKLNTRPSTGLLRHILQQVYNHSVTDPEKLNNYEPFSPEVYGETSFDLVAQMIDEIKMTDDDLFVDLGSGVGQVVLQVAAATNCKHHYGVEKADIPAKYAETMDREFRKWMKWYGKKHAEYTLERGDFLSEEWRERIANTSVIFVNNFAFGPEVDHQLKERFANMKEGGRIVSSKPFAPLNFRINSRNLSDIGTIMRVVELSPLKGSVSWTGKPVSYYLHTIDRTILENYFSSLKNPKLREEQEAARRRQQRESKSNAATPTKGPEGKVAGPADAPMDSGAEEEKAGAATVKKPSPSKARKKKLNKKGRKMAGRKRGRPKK

COC(=O)c1cc(O)c2cc(NC(=O)NCCCNC(=N)NC[C@H]3O[C@@H](n4cnc5c(N)ncnc54)[C@H](O)[C@@H]3O)cc(C(F)(F)F)c2c1 [1j, Methyl 6-(3-(3-(3-(((2R,3S,4R,5R)-5-(6-Amino-9H-purin-9-yl)-3,4-dihydroxytetrahydrofuran-2-yl)methyl)guanidino)propyl)ureido)-4-hydroxy-8-(trifluoromethyl)-2-naphthoate]
inhibition of DOT1L/KMT4 (in words) (DOT1L/KMT4; 10 μM): significantly inhibited
remaining activity at 10 µM (DOT1L/KMT4; 10 μM, read-out: % DOT1L residual activity): 11.2 ± 0.88%
remaining activity at 100 µM (DOT1L/KMT4; 100 μM, read-out: % DOT1L residual activity): 1.35 ± 0.17%
remaining activity at 10 µM (SET7/9/KMT7; 10 μM): 86.3 ± 1.4%
remaining activity at 100 µM (SET7/9/KMT7; 100 μM): 53.33 ± 0.38%
remaining activity at 10 µM (SMYD3/KMT3E; 10 μM): 99.1 ± 1.41%
remaining activity at 100 µM (SMYD3/KMT3E; 100 μM): 74.2 ± 1.8%
